The test system of this assay is HIVIIIb in CCRM-CEM cells. In words: Anti-viral potency in CCRM-CEM cells acutely infected with HIVIIIb (method of Meek et al.), extracellular p24 antigen. Format: cell-based, HIV-1. Particulars: Human immunodeficiency virus 1, HIV replication, Table VIII, read-out: IC90 Range. An excerpt: As discussed above, the novel compounds of the present invention are excellent ligands for aspartyl proteases, particularly HIV-1 and HIV-2 proteases. Accordingly, these compounds are capable of targeting and inhibiting late stage events in HIV replication, i.e., the processing of the viral polyproteins by HIV encoded proteases. […] Because aspartyl protease is essential for the production of mature virions, inhibition of that processing effectively blocks the spread of virus by inhibiting the production of infectious virions, particularly from chronically infected cells. […] Other anti-viral assays have confirmed the potency of these compounds.
Compounds of formula I were tested for their antiviral potency in several virological assays. In the first assay, the compounds were added as a solution in dimethylsulfoxide (DMSO) to a test cell culture of CCRM-CEM cells, a strain of CD4^+ human T-cell lymphoma cells, previously acutely infected with HIVIIIb using standard protocols (see Meek, T. D. et al., "Inhibition of HIV-1 protease in infected T-lymphocytes by synthetic peptide analogues", Nature, 343, p. 90 (1990). Preferred compounds are those which are able to inhibit 90% of viral infectivity at a concentration of 1 μM or less. More preferred compounds are those which are able to inhibit 90% of viral infectivity at a concentration of 100 nM or less.
The effect of the compounds on inhibiting the replication of the virus was measured by determining the HIV extracellular p24 antigen concentration using a commercial enzyme immunoassay (obtained from Coulter Corporation, Hialeah, Fla.).

Among the data in patent publication US6004957A, “Sulfonamide inhibitors of aspartyl protease” (Vertex Pharmaceuticals, Incorporated, priority 1998, dated 1999) are IC90 values, retold here.

Broadly, the IC90 is the point of the concentration-response curve where the effect stands at 90%.

Take `CC(=O)Nc1ccc(S(=O)(=O)N(CC(C)C)C[C@@H](O)[C@H](Cc2ccccc2)NC(=O)O[C@@H]2CCOC2)cc1` [Compound 94, N-(4-(((syn)-2-Hydroxy-(S)-4-phenyl-3-((tetrahydro-furan-(R)-3-yl)-oxycarbonylamino)-butyl)-isobutyl-sulfamoyl)-phenyl)-acetamide]: the IC90 fell in the range of 0.101 to 1 µM.
Regarding `CC(C)CN(C[C@@H](O)[C@H](Cc1ccccc1)NC(=O)OCc1cccnc1)S(=O)(=O)c1ccc(F)cc1` [Compound 98, 4-Fluoro-N-((2 syn,3S)-2-hydroxy-4-phenyl-3-(pyridin-3-yl-methoxycarbonylamino)-butyl)-N-isobutyl-benzenesulfonamide], the concentration for an effect of 90% (IC90) fell in the range of 0.101 to 1 µM.
For the molecule `CC(C)CN(C[C@@H](O)[C@H](Cc1ccccc1)NC(=O)O[C@H]1CCOC1)S(=O)(=O)c1ccc(O)cc1` [Compound 175], the concentration for an effect of 90% (IC90) was less than 0.1 µM.
The result for `Cc1ccc(S(=O)(=O)N(CC(C)C)C[C@@H](O)[C@H](Cc2ccccc2)NC(=O)O[C@H]2CCOC2)cc1` [Compound 165, N-((2 syn,3S)-2-Hydroxy-4-phenyl-3-((syn)-tetrahydrofuran-3-yloxycarbonylamino)-butyl)-N-isobutyl-4-methyl-benzenesulfonamide] reads 0.101 to 1 µM; that for `COc1ccc(S(=O)(=O)N(CC2CCCC2)C[C@@H](O)[C@H](Cc2ccccc2)NC(=O)O[C@H]2CCOC2)cc1` [Compound 140, N-cyclopentylmethyl-N-((2 syn,3S)-2-hydroxy-4-phenyl-3-((S)-tetrahydrofuran-3-yloxycarbonylamino)-butyl)-4-methoxy-benzenesulfonamide], less than 0.1 µM.
As for `CC(=O)Nc1ccc(S(=O)(=O)N(CC2CCCCC2)C[C@@H](O)[C@H](Cc2ccccc2)NC(=O)O[C@H]2CCOC2)cc1` [Compound 160, N-(4-(Cyclohexylmethyl)-((2 syn,3S)-2-hydroxy-4-phenyl-3-((S)-tetrahydrofuran-3-yloxycarbonylamino)-butyl)-sulfamoyl-phenyl)-acetamide], the concentration for an effect of 90% (IC90) is less than 0.1 µM.
`NC(=O)C[C@H](NC(=O)c1ccc2ccccc2n1)C(=O)N[C@@H](Cc1ccccc1)[C@H](O)CN(Cc1ccccc1)S(=O)(=O)c1cccc(C(=O)O)c1` [Compound 7]: the IC90 lay in the range of 10 to 40 µM.
`O=C(N[C@@H](Cc1ccccc1)[C@H](O)CN(CC1CCCC1)S(=O)(=O)c1ccc(OC(F)(F)F)cc1)O[C@H]1CCOC1` [Compound 151]: the IC90 was in the range of 1 to 10 µM.
For the molecule `C=C(C)COC(=O)N[C@@H](Cc1ccccc1)[C@H](O)CN(CC(C)C)S(=O)(=O)c1ccc(F)cc1` [Compound 107], the concentration for an effect of 90% (IC90) lay within 1 to 10 µM.
The result for `NC(=O)C[C@H](NC(=O)c1ccc2ccccc2n1)C(=O)N[C@@H](Cc1ccccc1)[C@H](O)CN(Cc1ccccc1)S(=O)(=O)c1ccccc1` [Compound 1] reads 1 to 10 µM; that for `CC(C)CN(C[C@@H](O)[C@H](Cc1ccccc1)NC(=O)O[C@H]1CCOC1)S(=O)(=O)c1cc(Cl)c(Cl)s1` [Compound 95], 1 to 10 µM; that for `CC[C@H](C)[C@H](NC(=O)c1cnc2ccccc2n1)C(=O)N[C@@H](Cc1ccccc1)[C@H](O)CN(CC(C)C)S(=O)(=O)c1ccc(F)c(NC(C)=O)c1` [Compound 188], 1 to 10 µM.
For the molecule `CC(C)CN(C[C@@H](O)[C@H](Cc1ccccc1)NC(=O)OCc1ccccc1)S(=O)(=O)c1ccc(F)cc1` [Compound 38], the 90% effect concentration (IC90) lay within 1 to 10 µM.
In the case of `CC(C)CN(C[C@@H](O)[C@H](Cc1ccccc1)NC(=O)OCc1ccccc1)S(=O)(=O)c1ccc(N)c([N+](=O)[O-])c1` [Compound 63], the IC90 lay in the range of 1 to 10 µM.
Regarding `C=CCOC(=O)N[C@@H](Cc1ccccc1)[C@H](O)CN(CC1CCCC1)S(=O)(=O)c1ccc(NC(C)=O)cc1` [Compound 146, N-(4-((3-(Allyloxycarbonylamino)-(2 syn,3S)-2-hydroxy-4-phenyl-butyl)-cyclopentylmethylsulfamoyl)-phenyl)-acetamide], the IC90 is 0.101 to 1 µM.
For the molecule `C=CCOC(=O)N[C@@H](Cc1ccccc1)[C@H](O)CN(CC1CCCC1)S(=O)(=O)c1ccc(F)cc1` [Compound 114, N-((3-Allyloxycarbonylamino)-(2 syn,3S)-2-hydroxy-4-phenyl-butyl)-N-cyclopentylmethyl-4-fluoro-benzenesulfonamide], the IC90 was 0.101 to 1 µM.
With `Nc1ccc(S(=O)(=O)N(CC2CCCC2)C[C@@H](O)[C@H](Cc2ccccc2)NC(=O)O[C@H]2CCOC2)c(N)c1` [Compound 173, 2,4-Diamino-N-cyclopentylmethyl-N-((2 syn,3S)-2-hydroxy-4-phenyl-3-((S)-tetrahydrofuran-3-yloxycarbonylamino)-butyl)-benzenesulfonamide], the concentration for an effect of 90% (IC90) is less than 0.1 µM.
The result for `NC(=O)C[C@H](NC(=O)c1ccc2ccccc2n1)C(=O)N[C@@H](Cc1ccccc1)[C@H](O)CN(Cc1ccccc1)S(=O)(=O)c1cccc(S(N)(=O)=O)c1` [Compound 10, N-1-(1-(S)-Benzyl-3-(benzyl-(3-sulfamoyl-benzenesulfonyl)-amino)-2-(syn)-hydroxy-propyl)-2-((quinoline-2-carbonyl)-amino)-succinamide] reads 0.101 to 1 µM; that for `O=C(N[C@@H](Cc1ccccc1)[C@H](O)CN(CC1CCCC1)S(=O)(=O)c1cccnc1)O[C@H]1CCOC1` [Compound 149, Pyridine-3-sulfonic acid cyclopentylmethyl-((2 syn,3S)-2-hydroxy-4-phenyl-3-((S)-tetrahydrofuran-3-yloxycarbonylamino)-butyl)-amide], 0.101 to 1 µM.
The result for `CC(C)CN(C[C@@H](O)[C@H](Cc1ccccc1)NC(=O)[C@H](CC(N)=O)NC(=O)c1ccc2ccccc2n1)S(=O)(=O)N(C)C` [Compound 21, N-1-((1S-2 syn)-1-Benzyl-2-hydroxy-3-(1-isobutyl-3,3-dimethylsulfonylurea)-propyl)-2-((quinoline-2-carbonyl)-amino)-succinamide] reads less than 0.1 µM; that for `CC(C)CN(C[C@@H](O)[C@H](Cc1ccccc1)NC(=O)O[C@H]1CCOC1)S(=O)(=O)c1cccc2nonc12` [Compound 60], 1 to 10 µM; that for `O=C(N[C@@H](Cc1ccccc1)[C@H](O)CN(CC1CCCC1)S(=O)(=O)c1ccc(Cl)c(Cl)c1)O[C@H]1CCOC1` [Compound 183, 3,4-Dichloro-N-cyclopentylmethyl-N-((2 syn,3S)-2-hydroxy-4-phenyl-3-((S)-tetrahydrofuran-3-yloxycarbonylamino)-butyl)-benzenesulfonamide], 0.101 to 1 µM.
Regarding `CC(=O)Nc1ccc(S(=O)(=O)N(CC(C)C)C[C@@H](O)[C@H](Cc2ccccc2)NC(=O)O[C@H]2CCOC2)cc1` [Compound 48, N-(4-(((2 syn,3S)-2-Hydroxy-4-phenyl-3-((S)-tetrahydrofuran-3-yloxycarbonylamino)-butyl)-isobutyl-sulfamoyl)-phenyl)-acetamide], the IC90 was in the range of 0.101 to 1 µM.
The result for `CCOC(=O)N[C@@H](Cc1ccccc1)[C@H](O)CN(CC(C)C)S(=O)(=O)c1ccc(F)cc1` [Compound 121] reads 1 to 10 µM.
The result for `NC(=O)C[C@H](NC(=O)c1ccc2ccccc2n1)C(=O)N[C@@H](Cc1ccccc1)[C@H](O)CN(Cc1ccccc1)S(=O)(=O)c1ccc(-c2ccon2)s1` [Compound 6, (S)-N-1-(1-Benzyl-3-(benzyl-(5-isoxazol-3-yl-thiophene-2-sulfonyl)-amino)-(1S,2 syn)-1-benzyl-2-hydroxy-propyl)-2-((quinoline-2-carbonyl)-amino)-succinamide] reads 0.101 to 1 µM; that for `COC(=O)N[C@@H](Cc1ccccc1)[C@H](O)CN(CC(C)C)S(=O)(=O)c1ccc(F)cc1` [Compound 104], 1 to 10 µM; that for `CC(=O)Nc1ccc(S(=O)(=O)N(CC(C)C)C[C@@H](O)[C@H](Cc2ccccc2)NC(=O)[C@H](CC(N)=O)NC(=O)c2ccc3ccccc3n2)cc1` [Compound 17, (S)-N-1-(1-(S)-Benzyl-3-((4-acetylamino-benzenesulfonyl)-isobutyl-amino)-2-(syn)-hydroxy-propyl)-2-((quinoline-2-carbonyl)-amino)-succinamide], 0.101 to 1 µM.
Turning to `NC(=O)C[C@H](NC(=O)c1ccc2ccccc2n1)C(=O)N[C@@H](Cc1ccccc1)[C@H](O)CN(Cc1ccccc1)S(=O)(=O)c1cccc(C(F)(F)F)c1` [Compound 4], the IC90 fell in the range of 1 to 10 µM.
As for `C=C(C)COC(=O)N[C@@H](Cc1ccccc1)[C@H](O)CN(CC(C)C)S(=O)(=O)c1ccc(Cl)c(Cl)c1` [Compound 106], the IC90 was 1 to 10 µM.
With `C=C(COC)COC(=O)N[C@@H](Cc1ccccc1)[C@H](O)CN(CC(C)C)S(=O)(=O)c1ccc(NC(C)=O)cc1` [Compound 155, N-4-((2-(syn)-Hydroxy-3-((2-methoxymethyl-allyloxycarbonylamino)-4-(S)-phenyl-butyl)-isobutyl-sulfamoyl)-phenyl)-acetamide], the IC90 is 0.101 to 1 µM.
As to `CC(C)CN(C[C@@H](O)[C@H](Cc1ccccc1)NC(=O)O[C@H]1CCOC1)S(=O)(=O)c1ccc(-c2ccon2)s1` [Compound 145, 5-Isoxazol-3-yl-thiophene-2-sulfonic acid ((2 syn,3S)-2-hydroxy-4-phenyl-3-((S)-tetrahydrofuran-3-yloxycarbonylamino)-butyl)-isobutyl-amide], the IC90 was 0.101 to 1 µM.
